From BindingDB's records for doi:10.1021/jm401695d (Emory University, 2014)

Target: Glutamate NMDA receptor; Grin1/Grin2c (Rattus norvegicus, UniProt Q00961+P35439)
Assay: Potentiation of rat recombinant GluN1/GluN2C expressed in Xenopus laevis oocytes assessed as increase in glutamate/glycine-induced current response by two-electrode voltage clamp technique relative to control

Glutamate NMDA receptor; Grin1/Grin2c, sequence (Q00961 whole entry, other chains not shown): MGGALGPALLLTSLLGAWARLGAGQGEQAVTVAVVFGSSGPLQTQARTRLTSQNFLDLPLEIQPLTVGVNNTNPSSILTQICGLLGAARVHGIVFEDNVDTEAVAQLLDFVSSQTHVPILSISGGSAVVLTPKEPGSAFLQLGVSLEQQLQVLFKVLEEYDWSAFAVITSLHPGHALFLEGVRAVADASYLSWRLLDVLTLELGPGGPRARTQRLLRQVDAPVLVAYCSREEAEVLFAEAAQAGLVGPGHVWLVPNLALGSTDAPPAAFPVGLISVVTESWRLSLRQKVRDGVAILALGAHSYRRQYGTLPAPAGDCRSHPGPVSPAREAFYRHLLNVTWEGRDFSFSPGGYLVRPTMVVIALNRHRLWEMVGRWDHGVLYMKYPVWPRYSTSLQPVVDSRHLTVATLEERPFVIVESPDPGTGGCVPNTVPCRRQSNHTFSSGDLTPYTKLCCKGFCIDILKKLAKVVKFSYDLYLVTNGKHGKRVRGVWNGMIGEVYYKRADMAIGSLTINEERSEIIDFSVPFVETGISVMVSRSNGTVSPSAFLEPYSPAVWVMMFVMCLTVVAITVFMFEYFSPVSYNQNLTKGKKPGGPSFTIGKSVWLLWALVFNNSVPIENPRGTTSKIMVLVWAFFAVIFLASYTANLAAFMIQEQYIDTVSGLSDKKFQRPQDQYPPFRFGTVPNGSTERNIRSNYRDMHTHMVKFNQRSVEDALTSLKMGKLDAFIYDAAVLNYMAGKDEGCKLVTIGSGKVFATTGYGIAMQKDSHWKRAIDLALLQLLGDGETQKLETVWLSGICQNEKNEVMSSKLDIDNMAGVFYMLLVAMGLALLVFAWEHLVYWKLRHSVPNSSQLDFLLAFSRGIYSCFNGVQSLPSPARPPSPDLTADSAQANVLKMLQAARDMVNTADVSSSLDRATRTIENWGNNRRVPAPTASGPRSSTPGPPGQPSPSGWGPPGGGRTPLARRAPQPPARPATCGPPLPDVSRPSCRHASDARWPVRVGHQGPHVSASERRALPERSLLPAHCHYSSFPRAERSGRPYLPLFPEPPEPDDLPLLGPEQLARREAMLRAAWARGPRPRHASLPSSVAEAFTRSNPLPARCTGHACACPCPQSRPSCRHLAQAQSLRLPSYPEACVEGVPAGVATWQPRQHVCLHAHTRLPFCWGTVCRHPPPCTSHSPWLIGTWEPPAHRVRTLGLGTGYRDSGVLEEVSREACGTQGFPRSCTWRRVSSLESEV

## COC(=O)c1ccc(C2C(C(C)=O)=C(O)C(=O)N2CCc2c(C)[nH]c3ccccc23)cc1 (stereo unspecified)
  EC50: 16 µM
